{"source": "the NIST ThermoML archive (doi:10.1016/j.jct.2006.03.017)", "key": {"[1]": {"assay": "refractive index (Na D-line) (dimensionless)", "settings": "293.15 K; 101.33 kPa; Liquid; Standard Abbe refractometry"}, "[2]": {"settings": "Liquid"}}, "note": "Numbers after ± are expanded uncertainties."}
{"smiles": "CCCCCCCC/C=C\\CCCCCCCCO", "note": "[(Z)-9-octadecen-1-ol]", "values": [{"measurement": "refractive index", "setting": "[1]", "result": "1.4603 ± 0.0032"}, {"measurement": "mass density", "setting": "[2]; 293.15 K, 101.33 kPa", "result": "848.5 ± 44", "unit": "kg/m3"}, {"measurement": "vapor or sublimation pressure", "setting": "[2]; 480.05 K, Distillation", "result": 2, "unit": "kPa"}]}
